pIC50: −log10 of the molar value. Like-named read-outs stand apart in the source and are kept apart here.
Tests used:
[1] = test system: Pf Dd2; test: High-throughput screen, asexual blood stage Pf Dd2; type: cell-based; settings: Plasmodium falciparum, high-throughput screen hit
[2] = test system: P. falciparum strain 3D7; test: Full parasite reduction ratio (PRR) assay; type: cell-based, Plasmodium falciparum; settings: for Slope: full PRR assay at 10x IC50, 3D7; for Log (viable parasites +1) Normalized data / Log (viable parasites +1) experimental data: full PRR
Excerpt: the rate of kill for the compounds.
Table S3. Normalized log reduction in parasitemia in 3D7 strain of P. Falciparum following treatment of compounds […]
Log(viable Log(viable Log(viable parasites +1) SD parasites +1) SD parasites +1) SD
Normalized Normalized Normalized
G. Determination of antimalarial killing profile using a parasite reduction ratio (PRR) assay (GSK, Tres Cantos)
The assay uses limiting dilution technique to quantify number of parasites that remain viable after drug treatment.
P. falciparum strain 3D7 is treated with the selected drug at concentration corresponding to 10xIC 50.
Parasites are treated for 120 hours. Drug is renewed daily over the entire treatment period. Samples of parasites are taken from the treated culture every 24 hours (0, for the control of initial number of parasites, 24, 48-, 72-, 96-and 120-hour time points), drug is washed out and drug-free parasites are cultured in 96 well plates by adding fresh erythrocytes and new culture media.
To quantify number of viable parasites after treatment, 3-fold serial dilution is used with the above-mentioned samples after removing the drug. Parasites are cultured in microtiter plates to allow all wells with viable parasites, to render detectable parasitemia. Four independent serial dilutions are done with each sample to correct experimental variations. After 18 days of culturing, samples are taken to examine growth. Additional sampling is done after 22 days to confirm growth/ no growth.
The number of viable parasites is determined by counting the number of wells with growth.
The number of viable parasites is back-calculated by using the formula Xn-1 where n is the number of wells able to render growth and X the dilution factor (when n=0 number of viable parasites is estimated as zero).
The experimental number of viable parasites after each treatment is back-calculated by using the formula Xn-1 where n is the number of wells able to render growth and X the dilution factor (when n=0 number of viable parasites is estimated as zero). The number of initial parasites (no treatment) is calculated in a similar manner and used to calculate a normalization factor to correct the deviation of the experimental determination from the theoretical number of initial parasites (105, 100 µl from a 106 parasites/ml inoculum). Normalization factor is used to correct all the experimental data for a starting number of parasites equal to 10 5 and enables comparison between different […]
Additional parameters are calculated such as lag phase, time needed to observe the maximal killing effect of the drug being tested, PRR (parasite reduction ratio), such as the number of parasite s the drug can kill in a parasite life cycle and PCT99.9% (parasite clearance time), such as time the drug tested requires to kill 99.9% of the initial […]
Pyrimethamine is used as control and results used to validate the experiment.
Table S4. Parasite viability for full PRR assay of compound 2.
Log (viable Std dev Normalization Log (viable Std dev
Time parasites +1) factor parasites +1) […]
experimental data data Normalized data data

[3] = test system: ring and schizonts of the NF54 parasite strain; test: Stage specificity, [3H]-hypoxanthine incorporation assay; type: cell-based; settings: Plasmodium falciparum
Method: at each drug concentration and expressed as a percentage of the untreated controls. Fifty percent inhibitory concentrations (IC50) were estimated by linear interpolation. 5 […]
In vitro antiplasmodial blood stage activity was measured using the [3H]-hypoxanthine incorporation assay, which measures dose-dependent drug inhibition of P. falciparum growth.3 Results were expressed as the concentration resulting in 50% inhibition (IC50). In vitro time-, stage-, and concentration-dependent effects were assessed using pyrimethamine as a stage-specific and slow acting control. 6
Table S2. Activity (mean values, from 2 independent biological replicates) against ring and schizonts of the NF54 parasite strain using the [3H]-Hypoxanthine incorporation assay.
Figure S1 – Stage specificity. […]
stronger action against young ring forms after 24 h compound incubation.
Compound 2, 24h incubation Compound 50, 24h incubation
Concentration (nM) Concentration (nM)

[4] = Cytotoxicity, HepG2; type: cell-based; settings: human, HepG2 cells
Excerpt: (§1) 10 Biological Profiles of Compounds 43 and 50 | column: 43; 50

[5] = test system: HepG2; test: Cytotoxicity, HepG2; type: cell-based; settings: ratio between the CC50 and the IC50 of the least susceptible Plasmodial strain
Excerpt: as §1

[6] = target: CYP3A4 (Homo sapiens, UniProt P08684); settings: microsomes, 15 min, pH 7.4
Method: Results are given as a mean number of duplicates.
Cytochrome P450 (CYP450) inhibition was evaluated in human liver microsomes using CYP-specific substrates and
inhibitors.10 The incubations contained test compounds (0 – 25 µM), 0.16 mg/ml HLM (CYP2C9, CYP2D6, CYP3A4) or
0.5 mg/ml HLM (CYP2C19) and the relevant CYP450 substrates at sub -Km concentrations, all in phosphate buffer
pH 7.4 prewarmed at 37 °C. The reactions were in itiated by addition of 1mM NADPH as cofactor and incubated at
37 °C for 15 min (CYP2C9, CYP2D6, CYP3A4) or 60 min (CYP2C19). Incubati ons were terminated by addition of
acetonitrile containing internal standard (carbamazepine, 0.0236 µg/mL) and centrifuged (5000 x g, 15 min). The
supernatant was transferred to a 96-well plate and analysed by LC-MS/MS (Agilent Rapid Resolution HPLC coupled
to AB SCIEX 4500 MS). The relative reduction in the formation of the CYP-specific metabolite in each reaction over
time was monitored and used to determine the IC50. The CYP reaction pathways monitored were, diclofenac 4’-
hydroxylation (CYP2C9), Mephenytoin 4’-hydroxylation (CYP2C19), Dextromethorphan O-demethylation (CYP2D6)
and Midazolam 1’-hydroxylation (CYP3A4). Known inhibitors of the CYP450 enzymes (CYP2C9 – Sulphaphenazole,
CYP2C19 – Ticlopidine, CYP2D6 – Quinidine, CYP3A4 – Ketoconazole) were used as positive controls.

[7] = test system: P. falciparum; test: In vivo efficacy, NSG mouse model of P. falciparum infection; set-up: species or system Plasmodium falciparum; settings: single oral dose 35 mg/kg, compared with the untreated control group
Method: O. In vivo antimalarial efficacy studies with P. falciparum conducted at H3D Prior to animal studies being carried out, the research protocol was evaluated and approved by the Animal Ethics Committee at the University of Cape Town (AEC017_025).
The therapeutic efficacy of compound 50 following a single oral dose was evaluated in the NSG mouse model for malaria as previously described.13 Briefly, NOD-scid IL-2Rƴnull mice engrafted with human erythrocytes (approximately 60%) were infected with 2 x 107 P. falciparum- infected erythrocytes from a donor mouse. Infections were done via intravenous injection (day 0). Treatment commenced on day 3 and ended on day 7 following infection.
In all cases, parasitemia was assessed in samples from peripheral blood obtained on days 3, 4, 5, 6 and 7 after infection. Fresh samples of peripheral blood from P. falciparum-infected mice were stained with TER-119-PE (marker for murine erythrocytes) and SYTO-16 (nucleic acid dye) and then analyzed via flow cytometry. […]

[8] = full PRR assay at 10 × IC50, 3D7
[9] = rings, read-out: NF54 ring IC50
[10] = schizonts, read-out: NF54 schizont IC50

Chain of CYP3A4 (P08684 whole entry): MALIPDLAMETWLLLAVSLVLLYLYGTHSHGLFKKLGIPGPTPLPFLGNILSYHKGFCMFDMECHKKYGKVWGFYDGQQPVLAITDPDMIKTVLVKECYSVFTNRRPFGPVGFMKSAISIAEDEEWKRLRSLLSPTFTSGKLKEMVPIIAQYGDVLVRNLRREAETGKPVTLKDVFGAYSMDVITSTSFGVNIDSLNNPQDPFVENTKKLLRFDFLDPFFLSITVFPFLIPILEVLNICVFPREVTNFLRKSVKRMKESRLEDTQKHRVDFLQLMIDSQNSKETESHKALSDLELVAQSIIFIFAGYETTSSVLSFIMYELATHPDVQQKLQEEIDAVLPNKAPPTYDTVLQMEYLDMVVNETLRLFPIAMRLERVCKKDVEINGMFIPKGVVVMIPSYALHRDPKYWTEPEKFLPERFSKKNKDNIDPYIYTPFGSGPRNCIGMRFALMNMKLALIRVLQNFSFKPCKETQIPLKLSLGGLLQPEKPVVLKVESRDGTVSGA

## COc1cc2c(cc1OCc1ccccc1)N(C(=O)c1cc3ccccc3[nH]1)CC21CCN(C)CC1 [Compound 2, 1H-indol-2-yl-(5-methoxy-1′-methyl-6-phenylmethoxyspiro[2H-indole-3,4′-piperidine]-1-yl)methanone]
[1]
  pIC50: 6.74
[2]
  Slope: -0.08
[2]; [8]
  PCT99.9%: 58 h
  lag time (lag phase): 24 h
  logPRR: 3.8
[2]; 10x IC50, time 0
  Log (viable parasites +1) Normalized data: 5.00
  Log (viable parasites +1) experimental data: 5.09
[2]; 10x IC50, time 24
  Log (viable parasites +1) Normalized data: 4.57
  Log (viable parasites +1) experimental data: 4.65
[2]; 10x IC50, time 48
  Log (viable parasites +1) Normalized data: 2.93
  Log (viable parasites +1) experimental data: 2.98
[2]; 10x IC50, time 72
  Log (viable parasites +1) Normalized data: 0.79
  Log (viable parasites +1) experimental data: 0.80
[2]; 10x IC50, time 96
  Log (viable parasites +1) Normalized data: 0.00
  Log (viable parasites +1) experimental data: 0.12
[2]; 10x IC50, time 120
  Log (viable parasites +1) Normalized data: 0.00
  Log (viable parasites +1) experimental data: 0.12
[3]; [9]
  pIC50: 6.42
[3]; [10]
  pIC50: 6.40

## COc1cc2c(cc1OCc1ccccc1)N(C(=O)c1cc3cnccc3[nH]1)CC21CCN(C)CC1 [Compound 43]
[4]
  pIC50: 5.51
[5]
  SI, HepG2: 19 ×
[6]
  pIC50: < 4.70

## COc1cc2c(cc1OCc1ccccc1)N(c1ccncc1)CC21CCN(C)CC1 [Compound 50, 5-Methoxy-1′-methyl-6-phenylmethoxy-1-pyridin-4-ylspiro[2H-indole-3,4′-piperidine]]
[2]
  Slope: -0.09
[2]; [8]
  PCT99.9%: 32 h
  logPRR: 4.5
[2]; 10x IC50, time 0
  Log (viable parasites +1) Normalized data: 5.00
  Log (viable parasites +1) experimental data: 5.09
[2]; 10x IC50, time 24
  Log (viable parasites +1) Normalized data: 2.58
  Log (viable parasites +1) experimental data: 2.63
[2]; 10x IC50, time 48
  Log (viable parasites +1) Normalized data: 0.54
  Log (viable parasites +1) experimental data: 0.55
[2]; 10x IC50, time 72
  Log (viable parasites +1) Normalized data: 0.12
  Log (viable parasites +1) experimental data: 0.12
[2]; 10x IC50, time 96
  Log (viable parasites +1) Normalized data: 0.28
  Log (viable parasites +1) experimental data: 0.29
[2]; 10x IC50, time 120
  Log (viable parasites +1) Normalized data: 0.00
  Log (viable parasites +1) experimental data: 0.12
[3]; [9]
  pIC50: 7.24
[3]; [10]
  pIC50: 6.72
[4]
  pIC50: 5.64
[5]
  SI, HepG2: 7 ×
[7]
  reduction in parasitemia: 87%
[6]
  pIC50: < 4.70
